From patent US12528774B2, “Thiosemicarbazone compounds and uses thereof” (The Regents of the University of California, priority 2019, dated 2026)

How the values were obtained:
MIAPACA2 PDAC cells = experiment: Intracellular copper measurement by ICP-MS; type: cell-based, human; conditions: HCT13 25 nM, 24 h, with and without 20 μM Cu(II)
Excerpt: (§1) FIG. 1A: IC50 values in a panel of human and mouse prostate cancer (PC)(cell lines CF-2, LNCaP, 22Rv1, RM-1, MyC CaP); small cell lung carcinoma (SCLC)(cell lines NCI-H1963, NCI-H146, NCI-H526); pancreatic ductal adenocarcinoma (PDAC)(CFPAC1, SW1990, HS766T, PANC0203, PANC0813, ASPC1, HPAFII, PATU8902, PANC0327, PANC1, YAPC, L36PL, XWR200, HUPT4, A13A, SUIT2, DAN-G, BxPC3, HPAC, PSN1, SU8686, KP4662, MIAPACA2, PATU8988T); and leukemia (cell lines KG-1, TF-1, Jurkat, MOLT-4, p185-R, MV4-11) models treated with HCT13+Cu(II) (20 μM) for 72 h measured by CellTiterGlo. […] (mean±SD, n=2, one-way ANOVA corrected for multiple comparisons by Bonferroni adjustment, * P<0.05; **P<0.01; ***P<0.001).
The MIAPACA2 cell line, a well-characterized PDAC model that was highly sensitive to HCT13 treatment, was used to further investigate the mechanism of action of our lead compound. MIAPACA2 proliferation was measured in response to HCT13 in the presence and absence of 20 μM CuCl2 (Cu(II)), as well as in response to 20 μM Cu(II) alone (FIG. 1B). […] To probe whether HCT13 was acting as an ionophore, intracellular copper levels were measured using inductively coupled plasma mass spectrometry (ICP-MS). […]
Intracellular Cu(II) measurement. […] The concentration of Cu(II) was measured using Inductive Coupled Plasma Mass Spectrometry (ICP-MS) using standard procedure.

[1] = system: panel of PDAC, SCLC, and PC cancer models; experiment: Proliferation assay (CellTiter-Glo) in panel of PDAC, SCLC and PC cancer models; type: cell-based, human and mouse; conditions: media with 20 μM CuCl2, 72 h
Excerpt: as §1
Serum copper levels are elevated (>20 μM) in individuals with solid tumor types such as pancreatic ductal adenocarcinoma (PDAC), small cell lung carcinoma (SCLC), and prostate cancer (PC). (Refs. 43-48). These cancers rely upon elevated copper levels to sustain growth, making this transition metal a viable target for therapeutic modulation. (Ref 34). […]
Proliferation assay: Cells were plated in 384-well plates (500 cells/well for adherent cell lines in 30 μl volume). […] Following 72 h incubation, ATP content was measured using CellTiter-Glo reagent according to manufacturer's instructions (Promega, CellTiter-Glo Luminescent Cell Viability Assay), and analyzed by SpectraMax luminometer (Molecular Devices). […]

SMILES: CN(C)C(=S)N/N=C/c1nccc2cc(F)ccc12 (mixture of isomers) [HCT13, (E)-2-((6-Fluoroisoquinolin-1-yl)methylene)-N,N-dimethylhydrazine-1-carbothioamide and (Z)-2-((6-Fluoroisoquinolin-1-yl)methylene)-N,N-dimethylhydrazine-1-carbothioamide]
- intracellular copper levels (MIAPACA2 PDAC cells): increased
- +Cu IC90 range across panel [1]: nanomolar
- IC90 ([1]; read-out: +Cu IC90 range across panel): 1 to 200 nM
